# Laboratory results taken from patent publication US6060077A, “Unit galenical formulation for local hormonotherapy of vaginal dryness” (priority 1995, dated 2000).
# Entries after “also recorded” stand apart in the source; their conditions may differ.
# Experiments:
# [1] = test system: receptors with high estradiol affinity in the vaginal epithelium; details: cited from earlier work; for affinity for vaginal epithelium receptors (decreasing order): female
# [2] = test system: vaginal estrogenic receptors; details: cited from earlier work; for agonist/antagonist properties: estrogenic receptors; for effect on endogenous estradiol: in the presence of endogenous estrogen
# [3] = plasma estradiol after vaginal administration (pharmacokinetic analysis); type: in vivo, human (patients)
# Method: Pharmacokinetic analysis: From a pharmacokinetic viewpoint, the plasmic estradiol concentrations remained unquantifiable in the group of subjects after administration of low doses (2.5 μg and 5 μg) and in half of the subjects at a high dose (10 μg).
# (§1) General conclusion: After a single vaginal administration of a soft capsule with 2.5 μg, 5 μg and 10 μg doses of 17β-estradiol, clinical tolerance was excellent for the group of six subjects included in the trial. Biological tolerance was also excellent.
# [4] = plasma estrone after vaginal administration of 17β-estradiol; type: in vivo, human (patients)
# Method: In all cases, the estrone concentrations never exceeded 30 pg/ml.
# as §1
# [5] = test system: vulvo-vaginal mucous membrane; details: in vivo; cited from earlier work
# [6] = test system: vaginal mucous membrane / endometrium; details: 25 μg of 17β-estradiol per vaginal tablet, cited from earlier work
# [7] = 10 μg, micronized free form, vaginal
Compound,affinity for vaginal epithelium receptors (decreasing order) [1],intrinsic activity relative to 17β-estradiol ([2]; compared with 17β-estradiol),agonist/antagonist properties [2],effect on endogenous estradiol [2],vaginal absorption of estradiol from soft capsules ([3]; 2.5 μg to 10 μg doses of 17β-estradiol),"systemic passage [3, 7]","time of plasmic peak after administration [3, 7]",vaginal resorption of estradiol ([3]; capsules with 2.5 μg and 5 μg doses of 17β-estradiol),"plasmic estrone amounts after vs before treatment ([4]; capsule with 10 μg dose of 17β-estradiol, the other subjects)","estrone concentrations after vs before treatment ([4]; in general, after 17β-estradiol 2.5 μg, 5 μg and 10 μg, soft capsule)",proportionality between estrone Cmax or SSC and the administered dose ([4]; in vivo),affinity for vaginal estrogenic receptors ([1]; in words),local blood flow [5],quantity of vaginal secretions [5],transvaginal potential difference [5],trophic effect in the vulvo-vaginal mucous membrane [5],vaginal pH [5],"cytological, histological and clinical improvement in the vaginal mucous membrane ([6]; daily)",endometrial proliferation ([6]; daily),systemic passage of 17β-estradiol ([6]; indicated by endometrial proliferation)
C[C@]12CC[C@@H]3c4ccc(O)cc4CC[C@H]3[C@@H]1CCC2=O [estrone],17β-estradiol>estriol>estrone,,,,,,,,,,,,,,,,,,,
C[C@]12CC[C@@H]3c4ccc(O)cc4CC[C@H]3[C@@H]1C[C@@H](O)[C@@H]2O [estriol],17β-estradiol>estriol>estrone,less active,partially agonist properties and even antagonist properties,antagonistic effect on endogenous estradiol,,,,,,,,,,,,,,,,
C[C@]12CC[C@@H]3c4ccc(O)cc4CC[C@H]3[C@@H]1CC[C@@H]2O [17β-estradiol],17β-estradiol>estriol>estrone,,physiological estrogenic agonist; also recorded: pure agonist; also recorded: complete agonist,adding effects in the presence of endogenous estrogen,substantially zero,only slight systemic passage is observed,about one,zero,comparable with the amounts measured before treatment,of the same order of magnitude as those measured before treatment,no proportionality,high affinity,increase,increase,increase the transvaginal potential difference,recognized and has been widely described,reduce the vaginal pH,"desired cytological, histological and clinical improvement",endometrial proliferation was noted in certain patients,systemic passage
